This is an account of results in PubChem BioAssay AID328 (DTP/NCI, 2004).

“And” between values parts separate entries of the source, which are not always exact repeats. Equal entries are not always repeated. Toxic doses and inconclusive results are not listed.

The assay deals with BDF1 mice, P388 leukemia ip, median survival T/C. As to the kind of experiment: NCI In Vivo Anticancer Drug Screen. Data for tumor model P388 Leukemia (intraperitoneal) in B6D2F1 (BDF1) mice. Particulars: endpoint: median survival time, higher = longer survival. In short, it runs like this:
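Reported as T/C, where T is the survival measurement in dosed animals and C the same measurement in vehicle controls.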

The mark [1] stands for this setting: dose: 25.0 mg/kg/injection, schedule: Q01DX009 (ip), vehicle: Klucel (hydroxypropylcellulose) (HPC).
The mark [2] stands for this setting: dose: 400.0 mg/kg/injection, schedule: Q01DX009 (ip), vehicle: saline.
[3] abbreviates: dose: 50.0 mg/kg/injection, schedule: Q01DX009 (ip), vehicle: saline with Tween-80.
The mark [4] stands for this setting: dose: 100.0 mg/kg/injection, schedule: Q01DX009 (ip), vehicle: saline with Tween-80.
[5] abbreviates: dose: 200.0 mg/kg/injection, schedule: Q01DX009 (ip), vehicle: saline with Tween-80.
The mark [6] stands for this setting: dose: 25.0 mg/kg/injection, schedule: Q01DX009 (ip), vehicle: saline with Tween-80.
Setting [7] is: dose: 100.0 mg/kg/injection, schedule: Q04DX003 (ip), vehicle: saline with Tween-80.
Where [8] appears, read: dose: 400.0 mg/kg/injection, schedule: Q04DX003 (ip), vehicle: saline with Tween-80.

On to `O=C(O)C1CCC[N-]C1.O=C(O)C1CCC[N-]C1.[Cl][Pt+2][Cl]` (stereo not drawn), for which the T/C (dose: 5.0 mg/kg/injection, schedule: Q04DX003 (ip), vehicle: saline) was 95 % of control; the T/C (dose: 10.0 mg/kg/injection, schedule: Q04DX003 (ip), vehicle: saline) is 86 % of control; the T/C (dose: 20.0 mg/kg/injection, schedule: Q04DX003 (ip), vehicle: saline) is 95 % of control.
As to `CC(N)C(=O)NC(C)C(=O)O` (stereo not drawn), the T/C runs as follows: (dose: 100.0 mg/kg/injection, schedule: Q01DX001 (ip), vehicle: saline) 98 % of control; (dose: 200.0 mg/kg/injection, schedule: Q01DX001 (ip), vehicle: saline) 100 % of control; (dose: 400.0 mg/kg/injection, schedule: Q01DX001 (ip), vehicle: saline) 99 % of control.
In the case of `N#CC1CCCC1=O` (stereo not drawn), the T/C was 108 % of control (dose: 5.0 mg/kg/injection, schedule: Q01DX009 (ip), vehicle: saline) and 91 % of control (dose: 10.0 mg/kg/injection, schedule: Q01DX009 (ip), vehicle: saline).
For `CC1CC2=CC(=O)C=CC2(C)C2CCC3(C)C(O)CCC3C12` (stereo not drawn), the T/C (dose: 1.56 mg/kg/injection, schedule: Q01DX009 (ip), vehicle: Klucel (hydroxypropylcellulose) (HPC)) was 86 % of control; the T/C (dose: 3.12 mg/kg/injection, schedule: Q01DX009 (ip), vehicle: Klucel (hydroxypropylcellulose) (HPC)) is 107 % of control; the T/C (dose: 6.25 mg/kg/injection, schedule: Q01DX009 (ip), vehicle: Klucel (hydroxypropylcellulose) (HPC)) was 99 % of control; the T/C under setting [1] was 95 % of control; the T/C (dose: 50.0 mg/kg/injection, schedule: Q01DX009 (ip), vehicle: Klucel (hydroxypropylcellulose) (HPC)) is 91 % of control; the T/C (dose: 50.0 mg/kg/injection, schedule: Q01DX009 (ip), vehicle: saline) is 90 % of control. Further, the T/C (dose: 100.0 mg/kg/injection, schedule: Q01DX009 (ip), vehicle: Klucel (hydroxypropylcellulose) (HPC)) is 95 % of control and 97 % of control; the T/C (dose: 100.0 mg/kg/injection, schedule: Q04DX003 (ip), vehicle: Klucel (hydroxypropylcellulose) (HPC)) is 91 % of control; the T/C (dose: 200.0 mg/kg/injection, schedule: Q01DX009 (ip), vehicle: Klucel (hydroxypropylcellulose) (HPC)) was 96 % of control and 97 % of control; the T/C (dose: 200.0 mg/kg/injection, schedule: Q04DX003 (ip), vehicle: Klucel (hydroxypropylcellulose) (HPC)) was 95 % of control; the T/C (dose: 400.0 mg/kg/injection, schedule: Q01DX009 (ip), vehicle: Klucel (hydroxypropylcellulose) (HPC)) was 86 % of control and 88 % of control; the T/C (dose: 400.0 mg/kg/injection, schedule: Q04DX003 (ip), vehicle: Klucel (hydroxypropylcellulose) (HPC)) was 87 % of control.
For `CCC(C)(OC(C)=O)C(=O)OC1C(=O)OC2CC3C(C)=CC(=O)C(O)C3(C)C3C(O)C(O)C4(C)OCC23C14` (stereo not drawn), the T/C is, setting by setting: (dose: 0.01 mg/kg/injection, schedule: Q01DX009 (ip), vehicle: saline + alcohol) 104 % of control; (dose: 0.06 mg/kg/injection, schedule: Q01DX009 (ip), vehicle: saline + alcohol) 180 % of control; (dose: 0.1 mg/kg/injection, schedule: Q01DX009 (ip), vehicle: saline + alcohol) 161 % of control; (dose: 0.12 mg/kg/injection, schedule: Q01DX009 (ip), vehicle: saline + alcohol) 109 % of control; (dose: 0.38 mg/kg/injection, schedule: Q01DX009 (ip), vehicle: saline + alcohol) 168 % of control; (dose: 0.75 mg/kg/injection, schedule: Q01DX009 (ip), vehicle: saline + alcohol) 161 % of control. For the same compound, the T/C reads like this: (dose: 2.0 mg/kg/injection, schedule: Q01DX009 (ip), vehicle: saline + alcohol) 173 % of control; (dose: 3.0 mg/kg/injection, schedule: Q01DX009 (ip), vehicle: saline + alcohol) 171 % of control.
For `O=C(Oc1ccc([N+](=O)[O-])cc1)c1ccc(C[P+](c2ccccc2)(c2ccccc2)c2ccccc2)cc1`, the T/C runs as follows: (dose: 100.0 mg/kg/injection, schedule: Q01DX009 (ip), vehicle: saline) 109 % of control; (dose: 100.0 mg/kg/injection, schedule: Q04DX003 (ip), vehicle: saline) 104 % of control; (dose: 200.0 mg/kg/injection, schedule: Q01DX009 (ip), vehicle: saline) 100 % of control; (dose: 200.0 mg/kg/injection, schedule: Q04DX003 (ip), vehicle: saline) 100 % of control; under setting [2], 100 % of control; (dose: 400.0 mg/kg/injection, schedule: Q04DX003 (ip), vehicle: saline) 95 % of control.
`O=C1CCCCCCC1Cc1cc(O)c(CC2CCCCCCC2=O)cc1O` (stereo not drawn): the T/C runs as follows: under setting [3], 90 % of control; under setting [4], 91 % of control; under setting [5], 86 % of control.
For the compound `O=c1cnn(C2OC(CO)C(O)C2O)c(=O)[nH]1` (stereo not drawn), the T/C was 108 % of control and 115 % of control (dose: 12.5 mg/kg/injection, schedule: Q01DX009 (ip), vehicle: Klucel (hydroxypropylcellulose) (HPC)); 123 % of control under setting [1]; 112 % of control (dose: 75.0 mg/kg/injection, schedule: Q01DX009 (ip), vehicle: Klucel (hydroxypropylcellulose) (HPC)); 106 % of control (dose: 150.0 mg/kg/injection, schedule: Q01DX009 (ip), vehicle: Klucel (hydroxypropylcellulose) (HPC)); 111 % of control (dose: 180.0 mg/kg/injection, schedule: Q01DX009 (ip), vehicle: saline); 116 % of control and 122 % of control (dose: 200.0 mg/kg/injection, schedule: Q01DX010 (ip), vehicle: saline). The T/C (dose: 268.0 mg/kg/injection, schedule: Q01DX009 (ip), vehicle: saline) is 111 % of control; the T/C (dose: 300.0 mg/kg/injection, schedule: Q01DX009 (ip), vehicle: Klucel (hydroxypropylcellulose) (HPC)) was 106 % of control; the T/C under setting [2] is 117 % of control; the T/C (dose: 400.0 mg/kg/injection, schedule: Q01DX010 (ip), vehicle: saline) was 154 % of control; the T/C (dose: 600.0 mg/kg/injection, schedule: Q01DX009 (ip), vehicle: saline) was 109 % of control; the T/C (dose: 1200.0 mg/kg/injection, schedule: Q01DX009 (ip), vehicle: Klucel (hydroxypropylcellulose) (HPC)) was 91 % of control. Under “dose: 1600.0 mg/kg/injection, schedule: Q01DX010 (ip), vehicle: saline”, the T/C was 100 % of control.
As for `CCOc1c(Cl)cc(Cl)cc1C(c1ccc(Cl)cc1S(=O)(=O)O)c1cc(Cl)cc(Cl)c1OCC`, the T/C reads like this: under setting [6], 108 % of control; under setting [3], 116 % of control.
`CC1=NN(c2ccccc2)C(=O)C1=Nc1c(C)[nH]n(-c2ccccc2)c1=O`: the T/C by setting is: (dose: 30.0 mg/kg/injection, schedule: Q01DX009 (ip), vehicle: saline with Tween-80) 96 % of control; (dose: 60.0 mg/kg/injection, schedule: Q01DX009 (ip), vehicle: saline with Tween-80) 91 % of control.
As to `O=[N+]([O-])c1ccc(-n2[nH]nnc2=S)cc1`, the T/C is, setting by setting: (dose: 50.0 mg/kg/injection, schedule: Q04DX003 (ip), vehicle: saline with Tween-80) 107 % of control; under setting [7], 104 % of control; under setting [8], 95 % of control.
For the compound `COC(=O)c1c(Cl)c(Cl)c(C(=O)OC)c(Cl)c1Cl`, the T/C runs as follows: under setting [6], 100 % of control; under setting [3], 100 % of control; under setting [4], 86 % of control; under setting [7], 91 % of control; (dose: 200.0 mg/kg/injection, schedule: Q04DX003 (ip), vehicle: saline with Tween-80) 108 % of control; (dose: 266.0 mg/kg/injection, schedule: Q04DX003 (ip), vehicle: saline with Tween-80) 95 % of control. Further, the T/C is, setting by setting: under setting [8], 90 % of control; (dose: 600.0 mg/kg/injection, schedule: Q04DX003 (ip), vehicle: saline with Tween-80) 100 % of control.
With `O=C(c1ccccc1)C12CC3CC(CC(C3)C1)C2`, the T/C runs as follows: (dose: 6.25 mg/kg/injection, schedule: Q01DX009 (ip), vehicle: saline with Tween-80) 90 % of control and 98 % of control; (dose: 12.5 mg/kg/injection, schedule: Q01DX009 (ip), vehicle: saline with Tween-80) 90 % of control; under setting [6], 90 % of control and 99 % of control; under setting [3], 97 % of control; under setting [5], 107 % of control.
Take `CC(O)C(=O)N1Cc2cc3ccccc3nc2C1` (stereo not drawn): the T/C was 95 % of control (dose: 50.0 mg/kg/injection, schedule: Q01DX001 (ip), vehicle: saline sonified); 104 % of control (dose: 100.0 mg/kg/injection, schedule: Q01DX001 (ip), vehicle: saline sonified); 95 % of control (dose: 200.0 mg/kg/injection, schedule: Q01DX001 (ip), vehicle: saline sonified).
